Measured values reported in patent publication EP0927179B1, “SUBSTITUTED BENZOCYCLOHEPTAPYRIDINE DERIVATIVES USEFUL FOR INHIBITION OF FARNESYL PROTEIN TRANSFERASE” (SCHERING CORPORATION, priority 1996, dated 1998).
Blank lines part the entries; values can stand above or below the molecule they belong to.

How the values were obtained:
[1] = target: T1, farnesyl protein transferase (Homo sapiens, UniProt P49354+P49356); assay: FPT IC50 (H-ras), inhibition of farnesyl protein transferase, in vitro enzyme assay; assay type: biochemical
T1 sequence (P49356 whole entry, one chain of several): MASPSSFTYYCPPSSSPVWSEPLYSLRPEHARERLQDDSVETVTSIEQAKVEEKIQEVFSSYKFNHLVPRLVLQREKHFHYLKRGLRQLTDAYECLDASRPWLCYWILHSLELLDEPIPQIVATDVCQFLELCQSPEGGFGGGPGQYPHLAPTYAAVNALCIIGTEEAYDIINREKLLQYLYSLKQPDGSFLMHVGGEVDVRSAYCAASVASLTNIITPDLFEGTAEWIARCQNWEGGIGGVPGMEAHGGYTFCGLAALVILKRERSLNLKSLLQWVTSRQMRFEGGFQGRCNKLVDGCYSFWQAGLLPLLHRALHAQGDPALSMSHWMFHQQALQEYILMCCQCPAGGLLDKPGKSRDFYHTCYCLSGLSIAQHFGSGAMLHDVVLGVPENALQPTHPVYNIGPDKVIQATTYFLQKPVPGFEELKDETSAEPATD
Protocol: (§1) FPT IC50 (inhibition of farnesyl protein transferase, in vitro enzyme assay) and COS Cell IC50 (Cell-Based Assay) were determined following the assay procedures described in WO 95/10516, published April 20, 1995. GGPT IC50 (inhibition of geranylgeranyl protein transferase, in vitro enzyme assay), Cell Mat Assay, and anti-tumor activity (in vivo anti-tumor studies) could be determined by the assay procedures described in WO 95/10516. The disclosure of WO 95/10516 is incorporated herein by reference thereto.

Human tumor cells = assay: Soft Agar Assay (anchorage-independent growth); assay type: cell-based
Protocol: Anchorage-independent growth is a characteristic of tumorigenic cell lines. Human tumor cells are suspended in growth medium containing 0.3% agarose and an indicated concentration of a farnesyl transferase inhibitor. The solution is overlayed onto growth medium solidified with 0.6% agarose containing the same concentration of farnesyl transferase inhibitor as the top layer. After the top layer is solidified, plates are incubated for 10-16 days at 37°C under 5% CO2 to allow colony outgrowth. After incubation, the colonies are stained by overlaying the agar with a solution of MTT (3-[4,5-dimethyl-thiazol-2-yl]-2,5-diphenyltetrazolium bromide, Thiazolyl blue) (1 mg/mL in PBS). Colonies can be counted and the IC50's can be determined.

[2] = target: T1, farnesyl protein transferase; assay: FPT IC50 (K-ras), inhibition of farnesyl protein transferase, in vitro enzyme assay; assay type: biochemical
Protocol: as §1

COS Cell = COS Cell IC50 (Cell-Based Assay)
Protocol: as §1

SMILES: O=C(CC1CCN(S(=O)(=O)c2ccccc2)CC1)N1CCC([C@H]2c3ncc(Br)cc3CCc3cc(Cl)cc(Br)c32)CC1 [Example 1]
- IC50 [1]: 72 nM

SMILES: CS(=O)(=O)N1CCC(CC(=O)N2CCC([C@H]3c4ncc(Br)cc4CCc4cc(Cl)cc(Br)c43)CC2)CC1 [Example 2]
- IC50 (Human tumor cells): 50 nM

SMILES: CN(C)S(=O)(=O)N1CCC(CC(=O)N2CCC([C@H]3c4ncc(Br)cc4CCc4cc(Cl)cc(Br)c43)CC2)CC1 [Example 3]
- IC50 [2]: 10 nM
- IC50 (COS Cell): 9 nM
- IC50 (Human tumor cells): 100 nM
- IC50 [1]: 7.3 nM

SMILES: O=C(CC1CCN(S(=O)(=O)Cc2ccccc2)CC1)N1CCC([C@H]2c3ncc(Br)cc3CCc3cc(Cl)cc(Br)c32)CC1 [Example 9]
- IC50 (COS Cell): 350 nM

SMILES: CC1(C)C2CCC1(CS(=O)(=O)N1CCC(CC(=O)N3CCC([C@H]4c5ncc(Br)cc5CCc5cc(Cl)cc(Br)c54)CC3)CC1)C(=O)C2 (stereo partly shown) [Example 11]
- IC50 [1]: 34.8 nM

SMILES: O=C(CC1CCN(S(=O)(=O)c2cccs2)CC1)N1CCC([C@H]2c3ncc(Br)cc3CCc3cc(Cl)cc(Br)c32)CC1 [Example 13]
- IC50 [1]: 20 nM

SMILES: Cn1cnc(S(=O)(=O)N2CCC(CC(=O)N3CCC([C@H]4c5ncc(Br)cc5CCc5cc(Cl)cc(Br)c54)CC3)CC2)c1 [Example 14]
- IC50 [2]: 23 nM
- IC50 [1]: 5.7 nM

Now from value to molecule, other results behind:

- IC50 (Human tumor cells): 250 nM
SMILES: CCCS(=O)(=O)N1CCC(CC(=O)N2CCC([C@H]3c4ncc(Br)cc4CCc4cc(Cl)cc(Br)c43)CC2)CC1 [Example 7]
- IC50 (COS Cell): 30 nM

- inhibition at […] ([1]; @73 nM, read-out: FPT inhibition (H-ras) at a single concentration): 34%
SMILES: O=C(CC1CCN(S(=O)(=O)c2ccc(-c3ccccn3)s2)CC1)N1CCC([C@H]2c3ncc(Br)cc3CCc3cc(Cl)cc(Br)c32)CC1 [Example 12]

- IC50 [1]: 54 nM
SMILES: CS(=O)(=O)N1CCC(CC(=O)N2CCN(C3c4ccc(Cl)cc4CCc4cc(Br)cnc43)CC2)CC1 (stereo not shown) [Example 15]

- IC50 [1]: 80 nM
SMILES: NS(=O)(=O)N1CCC(CC(=O)N2CCN(C3c4ccc(Cl)cc4CCc4cc(Br)cnc43)CC2)CC1 (stereo not shown) [Example 16]
